Measured values: patent publication US9587220B2, “Method for inducing cardiac differentiation of pluripotent stem cell” (Kyoto University, priority 2012, dated 2017)
Entries after “also recorded” stand apart in the source; their conditions may differ.

Assays:
Type in all cases: cell-based, human
IMR90-1 hiPSCs [1] = assay: Number of beating colonies and total number of cardiomyocytes per well (WNT inhibitor combinations); details: total cell number x cTnT-positive ratio, FIG. 3e
[2] = tested on: TCF promoter activity in HEK293 cells; assay: TOPflash TCF reporter assay in HEK293 cells; details: 10 μM
Protocol: For the TCF reporter assay, IMR90-1 hiPSCs were cultured in the serum-containing differentiation culture, as described above, and transfected with TOPFlash plasmid (Millipore 21-170) and pRL-SV40 plasmid (Renilla luciferase transfection control, Promega E1980) on Day 2, using FuGENE HD transfection Reagenet (Promega E2311). After 24 h, 10 μM KY02111, 10 μM XAV939, or 10 μM IWP-2 was added to the medium, along with either 60 ng ml^−1 of mouse Wnt3a (Wako 232-02421) or 3 μM BIO. After 48 h of transfection (Day 4), luciferase activities were measured using a Dual-Luciferase Reporter 1000 Assay System kit (Promega E1980) and a 2030 ARVO X3 plate reader (PerkinElmer). Luciferase activities were normalized to the luminescence of the transfection control, Rennila luciferase, according to the kit protocol. For experiments using HEK293 cells, the cells were cultured in 10% FBS DMEM medium, and transfected with TOPflash and pRL-SV40 plasmid, using FuGENE HD. After 24 h, the transfected cells were seeded onto 96-well plates (10,000 cells well^−1) in medium containing 10 μM KY02111, 10 μM XAV939, or 10 μM IWP-2, along with 3 μM BIO or 60 ng ml^−1 mouse Wnt3a. Luciferase activities were measured 48 h after transfection by the procedure described above.

IMR90-1 hiPSCs [3] = assay: Immunostaining of cardiac, pacemaker and fibroblast markers in differentiated hiPSCs
Protocol: Confluent hESCs and hiPSCs were gently detached with CTK solution and transferred into Petri dishes (BD Biosciences) with Primate ES Cell Culture Medium (ReproCELL, Japan). Cells were held in suspension culture for 8-24 h to form aggregates. The sizes of hPSC aggregates (0.3-1 mm in diameter) are important for efficient differentiation. Following suspension culture, cell aggregates were attached to culture dishes (3-10×10^5 cells cm^−2) in cardiac differentiation medium: IMDM (Sigma), containing 20% FBS (Gibco), 1% MEM non-essential amino acid solution (Sigma), 1% Penicillin-Streptomycin (Gibco), 2 mM L-glutamine (Sigma), 0.001% 2-Mercaptoethanol (Gibco), and 0.005N NaOH, with 10 ng ml^−1 BMP4 (R&D Systems). The medium was changed to cardiac differentiation medium with 10 μM KY02111 and/or other WNT inhibitors added on Day 3 (hiPSC lines) or Day 4 (human or monkey ESC lines); XAV939 (Wako, Japan), IWP-2 (Santa Cruz Biotechnology), IWR-1 (Merck4Bioscience), IGFBP4 (R&D Systems), Dkk1 (R&D Systems) and the mixture of bFGF (R&D Systems), BMP4 (R&D Systems), VEGF (R&D Systems), DKK1 (R&D Systems), and Activin A (R&D Systems) (Non-patent literature 16). Medium was changed every 2-3 d. KY02111 and other WNT inhibitors were added until Day 9 for hiPSC lines and the monkey ESC line, or Day 14 for hESC lines. On Day 15, cardiac cell colonies on dishes were incubated with protease solution (0.1% collagenase type I, 0.25% trypsin, 1 U ml^−1 DNase I, 116 mM NaCl, 20 mM HEPES, 12.5 mM NaH2PO4, 5.6 mM glucose, 5.4 mM KCl, and 0.8 mM MgSO4, pH 7.35) for 0.5-2 h, until all cardiac colonies were detached from the bottom of the wells. The detached cardiac colonies were transferred into 15 ml tubes with fresh cardiac differentiation medium and precipitated by gravity, and the supernatant was removed by aspiration. The cardiac colonies were then transferred into Ultra-low culture dishes (Corning, 3261) or 6-well plates (Corning, YO-01835-24) in cardiac differentiation medium without both serum and NaOH. The floating cardiac colonies were maintained for more than 1 month, and the media were changed every 5 d. A differentiation method of mouse ESC (R1 line) was carried out as previously described^46, and KY02111 was added during Days 3-6. Beating colonies were counted on Day 9.
Cardiac colonies were dissociated by stirring for 1-2 h at 37° C. with the protease solution described above, cultured for 1 d on cover glasses coated with gelatin (Sigma), and fixed with 4% paraformaldehyde. After permeabilizing with Triton X, the cells were treated with 2% skim milk for 1-2 h, then incubated with primary antibodies for 2 h: NKX2.5 (rabbit polyclonal, 1:250; Abcam), αActinin (mouse monoclonal, 1:800; Sigma), cardiac TnT (mouse monoclonal, 1:100; Santa Cruz Biotechnology), Vimentin (mouse monoclonal, 1:800; Sigma V6630), and HCN4 (mouse monoclonal, 1:400; Abcam). The secondary antibodies used were Alexa546-conjugated anti-mouse IgG, Alexa488-conjugated anti-mouse IgG, and Alexa488-conjugated anti-rabbit IgG (1:1000; all from Molecular Probes, Invitrogen). Nuclei were visualized by DAPI. Images were captured under fluorescent microscopy (Olympus). The number of cTnT, αActinin, NKX2.5, HCN4, and Vimentin-positive cells were counted from three random areas, using the Metamorph imaging system (Molecular Devices). […] Cells were analyzed using a FACS CantoII flow cytometer (BD Biosciences). Data was analyzed using FACADiva software (BD Biosciences).

Structure (SMILES): COc1ccc(CCC(=O)Nc2nc3ccc(Cl)cc3s2)cc1OC [KY02111, 2-(3-(3,4-dimethoxyphenyl)propanamide)-6-chlorobenzothiazole]
- number of cardiomyocytes produced relative to the control (IMR90-1 hiPSCs [1]): 80 fold
- TCF promoter activity by Wnt3a ([2]; with 60 ng/ml Wnt3a): enhanced luciferase activity; also recorded: further augmented
- TCF promoter activity by BIO ([2]; with 3 μM BIO): cancelled WNT activation by BIO; also recorded: inhibited
- SMA (smooth muscle marker) expression (IMR90-1 hiPSCs [3]; data not shown): almost undetectable
- Vimentin-positive ratio (IMR90-1 hiPSCs [3]; serum-containing medium): 20%
- cells positive for pacemaker marker HCN4 (IMR90-1 hiPSCs [3]; serum-containing medium): 16%
- cTnT-positive cells (IMR90-1 hiPSCs [3]; serum-containing medium, FIG. 10b): approximately 80%
- decrease of ratio of Vimentin-positive cells (fibroblasts) (IMR90-1 hiPSCs [3]; versus DMSO): 3.3 fold
